Results published in patent US20260070945A1, “MACROCYCLIC IMMUNOMODULATORS” (Bristol-Myers Squibb Company, priority 2022, published 2026).
Where a SMILES comes first, the peptide text is derived from it. Bridges are numbered along the chain shown (N, C = ends). [ ]: non-standard residue; d: D form. The star is where a group is joined. ξ: configuration not given here. Phe(4-CH2CH2COOH) = N[C@@H](Cc1ccc(CCC(=O)O)cc1)C(=O)O; Phe(3-CF3) = N[C@@H](Cc1cccc(C(F)(F)F)c1)C(=O)O; Ala(morpholin-4-yl) = N[C@@H](CN1CCOCC1)C(=O)O; Phe(4-COOH) = N[C@@H](Cc1ccc(C(=O)O)cc1)C(=O)O; Tyr(3-Cl) = N[C@@H](Cc1ccc(O)c(Cl)c1)C(=O)O; Bip = N[C@@H](Cc1ccc(-c2ccccc2)cc1)C(=O)O; NH(CH2)14COOH = O=C(O)CCCCCCCCCCCCCCN*; Phe(3-Me) = Cc1cccc(C[C@H](N)C(=O)O)c1; NH(CH2)12COOH = O=C(O)CCCCCCCCCCCCN*; Val(3-OH) = CC(C)(O)[C@H](N)C(=O)O; hArg = N=C(N)NCCCC[C@H](N)C(=O)O; 3Pal = N[C@@H](Cc1cccnc1)C(=O)O; Cha = N[C@@H](CC1CCCCC1)C(=O)O; Cit = NC(=O)NCCC[C@H](N)C(=O)O; Thr(3ξ) = CC(O)[C@H](N)C(=O)O; 12Ado = NCCCCCCCCCCCC(=O)O; Carboxymethyl = O=C(O)C*; NMeA = CN[C@@H](C)C(=O)O; Aun = NCCCCCCCCCCC(=O)O; Dab = NCC[C@H](N)C(=O)O; AEEA = NCCOCCOCC(=O)O; Ac3c = NC1(C(=O)O)CC1

Target: T1, PD-1/PD-L1 interaction (PE-labeled human PD-L1-Ig binding to Jurkat cell line over-expressing human PD-1) (Homo sapiens, UniProt Q15116)
T1 construct: expressed in transfected cells; host or cells: Jurkat
T1 sequence (Q15116 25-288): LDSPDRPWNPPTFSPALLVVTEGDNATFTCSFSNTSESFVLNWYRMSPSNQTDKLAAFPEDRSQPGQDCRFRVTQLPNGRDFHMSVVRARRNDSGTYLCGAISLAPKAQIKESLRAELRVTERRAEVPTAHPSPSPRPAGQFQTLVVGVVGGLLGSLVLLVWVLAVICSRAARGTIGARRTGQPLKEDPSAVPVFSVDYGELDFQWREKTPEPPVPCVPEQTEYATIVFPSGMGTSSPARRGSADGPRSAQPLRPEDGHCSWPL
Assay: Jurkat-PD-1 Cell Binding High-Content Screening Assay (CBA)
Details: Jurkat-hPD-1 cells, PE-labeled PD-L1-Ig 20 nM final; read-out: Jurkat HPD1 PDL1 IC50
Outline: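 Binding of 20 nM (final) PE-tagged PD-L1-Ig to compound-pretreated Jurkat-hPD-1 cells was measured by high-content imaging after 1 h. Pretreatment ran 2 h at 37 °C in DMEM with 10% fetal calf serum.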

| Structure (SMILES) | IC50 [nM] |
| --- | --- |
| CC(C)C[C@@H]1NC(=O)[C@H](Cc2c[nH]c3ccccc23)NC(=O)[C@H](CC(=O)O)NC(=O)[C@H](Cc2ccc(OCC(=O)O)cc2)NC(=O)[C@H](Cc2ccccc2)NC(=O)CSC[C@@H](C(=O)N[C@@H](CCN)C(=O)NCCCCCCCCCCC(=O)O)NC(=O)[C@H](CCC(=O)O)NC(=O)[C@H](C(C)C)NC(=O)[C@H](CC(C)C)NC(=O)[C@H](CC(N)=O)NC(=O)[C@@H](CC(C)C)NC(=O)[C@H](C)N(C)C(=O)[C@H](C(C)C)NC(=O)[C@H](Cc2ccc(-c3ccccc3)cc2)NC1=O [Example 1334] ({CH2CO}-FY(Carboxymethyl)DWL[Bip]V[NMeA][dL]NLVEC[Dab][Aun]-OH; thioether N-14) | 117 |
| Cc1cccc(C[C@@H]2NC(=O)[C@H](CC(=O)O)NC(=O)[C@H](Cc3ccc(C(=O)O)cc3)NC(=O)[C@H](CCN)NC(=O)CSC[C@@H](C(=O)N[C@@H](CCN)C(=O)NCCCCCCCCCCC(=O)O)NC(=O)[C@H](CO)NC(=O)[C@H](C(C)(C)O)NC(=O)[C@H](CC3CCCCC3)NC(=O)[C@H](CCN)NC(=O)[C@@H](CC(C)C)NC(=O)[C@H](C)N(C)C(=O)[C@H](Cc3ccc(OCC(=O)O)cc3)NC(=O)[C@H](Cc3ccc(-c4ccccc4)cc3)NC(=O)[C@H](Cc3ccc(O)c(Cl)c3)NC2=O)c1 [Example 1293] ({CH2CO}-[Dab][Phe(4-COOH)]D[Phe(3-Me)][Tyr(3-Cl)][Bip]Y(Carboxymethyl)[NMeA][dL][Dab][Cha][Val(3-OH)]SC[Dab][Aun]-OH; thioether N-14) | 35.8 |
| CC(=O)NCCCC[C@@H]1NC(=O)[C@H](Cc2ccc(-c3ccccc3)cc2)NC(=O)[C@H](CC(C)C)NC(=O)[C@H](Cc2cccc(C)c2)NC(=O)[C@H](CC(=O)O)NC(=O)[C@H](Cc2ccc(C(=O)O)cc2)NC(=O)[C@H](Cc2ccc(OCC(=O)O)cc2)NC(=O)CSC[C@@H](C(=O)NCCOCCOCC(=O)NCCCCCCCCCCC(=O)O)NC(=O)[C@H](C(C)O)NC(=O)[C@H](C(C)C)NC(=O)[C@H](CC2CCCCC2)NC(=O)[C@H](CCN)NC(=O)[C@@H](CC(C)C)NC(=O)[C@H](C)N(C)C1=O (stereo partly drawn) [Example 2282] ({CH2CO}-Y(Carboxymethyl)[Phe(4-COOH)]D[Phe(3-Me)]L[Bip]K(Ac)[NMeA][dL][Dab][Cha]V[Thr(3ξ)]C[AEEA][Aun]-OH; thioether N-14) | 35.3 |
| CC(C)C[C@@H]1NC(=O)[C@H](Cc2c[nH]c3ccccc23)NC(=O)[C@H](CC(=O)O)NC(=O)[C@H](Cc2ccc(OCC(=O)O)cc2)NC(=O)[C@H](CCCCNC(=N)N)NC(=O)CSC[C@@H](C(=O)N[C@@H](C)C(=O)N[C@@H](CCCCN)C(=O)NCCCCCCCCCCCCCCC(=O)O)NC(=O)[C@H](CO)NC(=O)[C@H](C(C)C)NC(=O)[C@H](CC(C)C)NC(=O)[C@H](Cc2c[nH]cn2)NC(=O)[C@@H](CC(C)C)NC(=O)[C@H](C)N(C)C(=O)[C@H](C(C)C)NC(=O)[C@H](Cc2ccc(-c3ccccc3)cc2)NC1=O [Example 2003] ({CH2CO}-[hArg]Y(Carboxymethyl)DWL[Bip]V[NMeA][dL]HLVSCAK-{NH(CH2)14COOH}; thioether N-14) | 290 |

The next lines start with the values.

| IC50 [nM] | Structure (SMILES) |
| --- | --- |
| 30.2 | CC(C)C[C@H]1NC(=O)[C@H](C)N(C)C(=O)[C@H](Cc2ccc(OCC(=O)O)cc2)NC(=O)[C@H](Cc2ccc(-c3ccccc3)cc2)NC(=O)[C@H](Cc2ccc(C(=O)O)cc2)NC(=O)[C@H](Cc2cccc(C(F)(F)F)c2)NC(=O)[C@H](CC(=O)O)NC(=O)[C@H](Cc2ccc(OCC(=O)O)cc2)NC(=O)[C@H]([C@@H](C)O)NC(=O)CSC[C@@H](C(=O)N[C@@H](CCN)C(=O)NCCCCCCCCCCC(=O)O)NC(=O)[C@H]([C@@H](C)O)NC(=O)[C@H](C(C)C)NC(=O)[C@H](CC2CCCCC2)NC(=O)[C@H](CCN)NC1=O [Example 1231] ({CH2CO}-TY(Carboxymethyl)D[Phe(3-CF3)][Phe(4-COOH)][Bip]Y(Carboxymethyl)[NMeA][dL][Dab][Cha]VTC[Dab][Aun]-OH; thioether N-14) |
| 15.9 | Cc1cccc(C[C@@H]2NC(=O)[C@H](CC(=O)O)NC(=O)[C@H](Cc3ccc(C(=O)O)cc3)NC(=O)[C@H](Cc3cccnc3)NC(=O)CSC[C@@H](C(=O)N[C@@H](CCN)C(=O)NCCCCCCCCCCC(=O)O)NC(=O)[C@H](CO)NC(=O)[C@H](C(C)(C)O)NC(=O)[C@H](CC3CCCCC3)NC(=O)[C@H](CCN)NC(=O)[C@@H](CC(C)C)NC(=O)[C@H](C)N(C)C(=O)[C@H](Cc3ccc(OCC(=O)O)cc3)NC(=O)[C@H](Cc3ccc(-c4ccccc4)cc3)NC(=O)[C@H](Cc3ccc(OCC(=O)O)cc3)NC2=O)c1 [Example 1283] ({CH2CO}-[3Pal][Phe(4-COOH)]D[Phe(3-Me)]Y(Carboxymethyl)[Bip]Y(Carboxymethyl)[NMeA][dL][Dab][Cha][Val(3-OH)]SC[Dab][Aun]-OH; thioether N-14) |
| 12.6 | Cc1cccc(C[C@@H]2NC(=O)[C@H](CC(=O)O)NC(=O)[C@H](Cc3ccc(OCC(=O)O)cc3)NC(=O)[C@H](CCN)NC(=O)CSC[C@@H](C(=O)N[C@@H](CCN)C(=O)NCCCCCCCCCCC(=O)O)NC(=O)[C@H](Cc3c[nH]cn3)NC(=O)[C@H](C(C)(C)O)NC(=O)[C@H](CC3CCCCC3)NC(=O)[C@H](CCN)NC(=O)[C@@H](CC(C)C)NC(=O)[C@H](C)N(C)C(=O)[C@H](Cc3ccc(OCC(=O)O)cc3)NC(=O)[C@H](Cc3ccc(-c4ccccc4)cc3)NC(=O)[C@H](Cc3ccc(OCC(=O)O)cc3)NC2=O)c1 [Example 2483] ({CH2CO}-[Dab]Y(Carboxymethyl)D[Phe(3-Me)]Y(Carboxymethyl)[Bip]Y(Carboxymethyl)[NMeA][dL][Dab][Cha][Val(3-OH)]HC[Dab][Aun]-OH; thioether N-14) |
| 11.2 | CC(C)C[C@H]1NC(=O)[C@H](C)N(C)C(=O)[C@H](CCC(N)=O)NC(=O)[C@H](Cc2ccc(-c3ccccc3)cc2)NC(=O)[C@H](Cc2ccc(C(=O)O)cc2)NC(=O)[C@H](Cc2cccc(C(F)(F)F)c2)NC(=O)[C@H](CC(=O)O)NC(=O)[C@H](Cc2ccc(OCC(=O)O)cc2)NC(=O)[C@H](Cc2ccc(C(=O)O)cc2)NC(=O)CSC[C@@H](C(=O)N[C@@H](CCN)C(=O)NCCCCCCCCCCCCC(=O)O)NC(=O)[C@H](Cc2c[nH]cn2)NC(=O)[C@H](C(C)(C)O)NC(=O)[C@H](CC2CCCCC2)NC(=O)[C@H](CCN)NC1=O [Example 1145] ({CH2CO}-[Phe(4-COOH)]Y(Carboxymethyl)D[Phe(3-CF3)][Phe(4-COOH)][Bip]Q[NMeA][dL][Dab][Cha][Val(3-OH)]HC[Dab]-{NH(CH2)12COOH}; thioether N-14) |
| 8.6 | CC(C)C[C@H]1NC(=O)[C@H](C)N(C)C(=O)[C@H](CCCNC(N)=O)NC(=O)[C@H](Cc2ccc(-c3ccccc3)cc2)NC(=O)[C@H](Cc2ccc(C(=O)O)cc2)NC(=O)[C@H](Cc2cccc(C(F)(F)F)c2)NC(=O)[C@H](CC(=O)O)NC(=O)[C@H](Cc2ccc(OCC(=O)O)cc2)NC(=O)[C@H](CN2CCOCC2)NC(=O)CSC[C@@H](C(=O)N[C@@H](CCN)C(=O)NCCCCCCCCCCCCC(=O)O)NC(=O)[C@H](CCC(=O)O)NC(=O)[C@H](C(C)C)NC(=O)[C@H](CC2CCCCC2)NC(=O)[C@H](CCN)NC1=O [Example 1155] ({CH2CO}-[Ala(morpholin-4-yl)]Y(Carboxymethyl)D[Phe(3-CF3)][Phe(4-COOH)][Bip][Cit][NMeA][dL][Dab][Cha]VEC[Dab]-{NH(CH2)12COOH}; thioether N-14) |
| 8.5 | Cc1cccc(C[C@@H]2NC(=O)[C@H](CC(=O)O)NC(=O)[C@H](Cc3ccc(OCC(=O)O)cc3)NC(=O)[C@H](CCCNC(=N)N)NC(=O)CSC[C@@H](C(=O)N[C@@H](CCN)C(=O)NCCCCCCCCCCC(=O)O)NC(=O)[C@H](C(C)O)NC(=O)[C@H](C(C)C)NC(=O)[C@H](CC3CCCCC3)NC(=O)[C@H](CCN)NC(=O)[C@@H](CC(C)C)NC(=O)[C@H](C)N(C)C(=O)[C@H](CCCNC(N)=O)NC(=O)[C@H](Cc3ccc(-c4ccccc4)cc3)NC(=O)[C@H](C(C)C)NC2=O)c1 (stereo partly drawn) [Example 2211] ({CH2CO}-RY(Carboxymethyl)D[Phe(3-Me)]V[Bip][Cit][NMeA][dL][Dab][Cha]V[Thr(3ξ)]C[Dab][Aun]-OH; thioether N-14) |

Same assay, conditions: PE-labeled PD-L1-Ig 20 nM final, Jurkat-hPD-1 cells; read-out: Jurkat HPD1 PDL1 IC50

| IC50 [nM] | Structure (SMILES) |
| --- | --- |
| 3.3 | CC(=O)NCCCC[C@@H]1NC(=O)[C@H](C(C)(C)O)NC(=O)[C@H](CC2CCCCC2)NC(=O)[C@H](CCN)NC(=O)[C@@H](CC(C)C)NC(=O)[C@H](C)N(C)C(=O)[C@H](CCC(N)=O)NC(=O)[C@H](Cc2ccc(-c3ccccc3)cc2)NC(=O)[C@H](Cc2ccc(CCC(=O)O)cc2)NC(=O)[C@H](Cc2cccc(C(F)(F)F)c2)NC(=O)[C@H](CC(=O)O)NC(=O)[C@H](Cc2ccc(OCC(=O)O)cc2)NC(=O)[C@H](Cc2ccc(OCC(=O)O)cc2)NC(=O)CSC[C@@H](C(=O)N[C@@H](CCN)C(=O)NCCOCCOCC(=O)NCCCCCCCCCCC(=O)O)NC1=O [Example 2597] ({CH2CO}-Y(Carboxymethyl)Y(Carboxymethyl)D[Phe(3-CF3)][Phe(4-CH2CH2COOH)][Bip]Q[NMeA][dL][Dab][Cha][Val(3-OH)]K(Ac)C[Dab][AEEA][Aun]-OH; thioether N-14) |
| 200 | Cc1cccc(C[C@@H]2NC(=O)[C@H](CC(=O)O)NC(=O)[C@H](Cc3ccc(OCC(=O)O)cc3)NC(=O)[C@H]([C@@H](C)O)NC(=O)CSC[C@@H](C(=O)N[C@@H](CCN)C(=O)NCCOCCOCC(=O)NCCCCCCCCCCCC(=O)O)NC(=O)C3(CC3)NC(=O)[C@H](C(C)C)NC(=O)[C@H](CC3CCCCC3)NC(=O)[C@H](CCN)NC(=O)[C@@H](CC(C)C)NC(=O)[C@H](C)N(C)C(=O)[C@H](Cc3ccc(OCC(=O)O)cc3)NC(=O)[C@H](Cc3ccc(-c4ccccc4)cc3)NC(=O)[C@H](Cc3ccc(OCC(=O)O)cc3)NC2=O)c1 [Example 2672] ({CH2CO}-TY(Carboxymethyl)D[Phe(3-Me)]Y(Carboxymethyl)[Bip]Y(Carboxymethyl)[NMeA][dL][Dab][Cha]V[Ac3c]C[Dab][AEEA][12Ado]-OH; thioether N-14) |
